Data: patent publication US7425557B2, “Inhibitors of glycogen synthase kinase 3” (Novartis Vaccines and Diagnostics, Inc., priority 1998, dated 2008)

Target: human GSK3β (Homo sapiens, UniProt P49841)
Assay: Screening for GSK3 inhibitory activity using a cell-free assay
Format: biochemical
Settings: read-out: IC50 with respect to GSK3
Experimental: This amount represents the amount of radiolabeled phosphate incorporated into the peptide substrate.
The captured radiolabeled peptide substrate can be quantitated in a scintillation counter using known methods. […] If an inhibitor is present during the reaction, GSK3 activity will be reduced, and a smaller quantity of radiolabeled phosphate will thus be incorporated into the peptide substrate.
Pyrimidine and pyridine compounds of the present invention were dissolved in DMSO, then tested for inhibition of human GSK3β (the nucleotide sequence for human GSK3β appears in GenBank under Accession No. L33801).
While the reaction was proceeding, streptavidin-coated Labsystems “Combiplate 8” capture plates (Labsystems, Helsinki, Finland) were blocked by incubating them with 300 μl/well of PBS containing 1% bovine serum albumin for at least one hour at room temperature. The blocking solution was then removed by aspiration, and the capture plates were filled with 100 ul/well of stopping reagent (50 μM ATP/20 mM EDTA).
When the three hour enzyme reaction was finished, triplicate 100 μl aliquots of each reaction mix were transferred to three wells containing stopping solution, one well on each of the three capture plates, and the well contents were mixed well. […] Finally, 200 μl of Microscint-20 scintillation fluid was added to each well of the plate. The plates were coated with plate sealers, then left on a shaker for 30 minutes. Each capture plate was counted in a Packard TopCount scintillation counter (Meridian, Conn.) and the results were plotted as a function of compound concentration.

human GSK3β, sequence (P49841 whole entry): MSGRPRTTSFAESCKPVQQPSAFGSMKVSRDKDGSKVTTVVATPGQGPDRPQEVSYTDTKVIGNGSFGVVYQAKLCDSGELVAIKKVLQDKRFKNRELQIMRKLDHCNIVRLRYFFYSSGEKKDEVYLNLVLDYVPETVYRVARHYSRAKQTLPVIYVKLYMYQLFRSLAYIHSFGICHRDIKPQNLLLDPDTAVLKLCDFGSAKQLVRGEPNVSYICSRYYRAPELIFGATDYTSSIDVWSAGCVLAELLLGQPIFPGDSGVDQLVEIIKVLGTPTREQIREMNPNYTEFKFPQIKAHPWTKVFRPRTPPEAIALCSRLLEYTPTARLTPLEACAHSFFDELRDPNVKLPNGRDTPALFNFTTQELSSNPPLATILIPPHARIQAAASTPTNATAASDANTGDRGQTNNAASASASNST

| IC50 [µM] | SMILES |
| --- | --- |
| ≤ 1 | N#Cc1ccc(-c2nc(NCCNc3ccc([N+](=O)[O-])cn3)nc(-c3ccc(C#N)cc3)c2C(=O)O)cc1 [4,6-bis(4-cyanophenyl)-2-({2-[(5-nitro(2-pyridyl))amino]ethyl}-amino)pyrimidine-5-carboxylic acid] |
| ≤ 10 | N#Cc1cnc(NCCNc2ccc([N+](=O)[O-])cn2)nc1-c1ccc(Cl)cc1Cl [4-(2,4-dichlorophenyl)-2-({2-[(5-nitro(2-pyridyl))amino]-ethyl}amino)pyrimidine-5-carbonitrile] |
| ≤ 10 | COc1ccccc1-c1nc(NCCNc2ccc([N+](=O)[O-])cn2)ncc1C(=O)O [4-(2-methoxyphenyl)-2-({2-[(5-nitro(2-pyridyl))amino]ethyl}amino)pyrimidine-5-carboxylic acid] |
| ≤ 1 | COc1cccc(CCNc2nccc(-c3ccc(C(N)=O)cc3)n2)c1OC [4-(2-{[2-(2,3-dimethoxyphenyl)ethyl]amino}pyrimidin-4-yl)benzamide] |
| ≤ 1 | COc1ccc(OC)c(CCNc2nccc(-c3ccc(C(N)=O)cc3)n2)c1 [4-(2-{[2-(2,5-dimethoxyphenyl)ethyl]amino}pyrimidin-4-yl)benzamide] |
| ≤ 10 | COc1ccc(OC)c(CCNc2nccc(-c3ccc(C#N)cc3)n2)c1 [4-(2-{[2-(2,5-dimethoxyphenyl)ethyl]amino}pyrimidin-4-yl)benzene-carbonitrile] |
| ≤ 1 | COc1ccccc1CCNc1nccc(-c2ccc(C(N)=O)cc2)n1 [4-(2-{[2-(2-methoxyphenyl)-ethyl]amino}pyrimidin-4-yl)benzamide] |
| ≤ 1 | NC(=O)c1ccc(-c2ccnc(NCCNc3ccccn3)n2)cc1 [4-(2-{[2-(2-pyridylamino)ethyl]-amino}pyrimidin-4-yl)benzamide] |
| ≤ 10 | N#Cc1ccc(-c2ccnc(NCCNc3ccccn3)n2)cc1 [4-(2-{[2-(2-pyridylamino)ethyl]amino}pyrimidin-4-yl)benzenecarbonitrile] |
| ≤ 1 | NC(=O)c1ccc(-c2ccnc(NCCNc3ccc4ccccc4n3)n2)cc1 [4-(2-{[2-(2-quinolylamino)ethyl]amino}pyrimidin-4-yl)benzamide] |
| ≤ 10 | COc1cccc(CCNc2nccc(-c3ccc(C(N)=O)cc3)n2)c1 [4-(2-{[2-(3-methoxyphenyl)ethyl]amino}pyrimidin-4-yl)-benzamide] |
| ≤ 10 | NC(=O)c1ccc(-c2ccnc(NCCc3ccc(F)cc3)n2)cc1 [4-(2-{[2-(4-fluorophenyl)ethyl]amino}pyrimidin-4-yl)benzamide] |
| ≤ 10 | NC(=O)c1ccc(-c2ccnc(NCCc3ccc([N+](=O)[O-])cc3)n2)cc1 [4-(2-{[2-(4-nitrophenyl)ethyl]amino}pyrimidin-4-yl)benzamide] |
| ≤ 1 | NC(=O)c1ccc(-c2ccnc(NCCNc3ncccn3)n2)cc1 [4-(2-{[2-(pyrimidin-2-ylamino)ethyl]amino}pyrimidin-4-yl)benzamide] |
| ≤ 10 | NC(=O)c1ccc(-c2ccnc(NCCCOc3ccc(Cl)cc3Cl)n2)cc1 [4-(2-{[3-(2,4-dichlorophenoxy)propyl]amino}pyrimidin-4-yl)benzamide] |
| ≤ 10 | NC(=O)c1ccc(-c2ccnc(NCCCOc3ccc(Cl)c(Cl)c3)n2)cc1 [4-(2-{[3-(3,4-dichlorophenoxy)-propyl]amino}pyrimidin-4-yl)benzamide] |
| ≤ 10 | NC(=O)c1ccc(-c2ccnc(NCCCOc3cccc(Br)c3)n2)cc1 [4-(2-{[3-(3-bromophenoxy)propyl]-amino}pyrimidin-4-yl)benzamide] |
| ≤ 10 | COc1cccc(OCCCNc2nccc(-c3ccc(C(N)=O)cc3)n2)c1 [4-(2-{[3-(3-methoxyphenoxy)propyl]-amino}pyrimidin-4-yl)benzamide] |
| ≤ 10 | Cc1cccc(OCCCNc2nccc(-c3ccc(C(N)=O)cc3)n2)c1 [4-(2-{[3-(3-methylphenoxy)propyl]amino}pyrimidin-4-yl)benzamide] |
| ≤ 10 | NC(=O)c1ccc(-c2ccnc(NCCCOc3cccc(-c4ccccc4)c3)n2)cc1 [4-(2-{[3-(3-phenylphenoxy)propyl]-amino}pyrimidin-4-yl)benzamide] |
| ≤ 1 | NC(=O)c1ccc(-c2ccnc(NCCCc3nc(Cl)c(Cl)[nH]3)n2)cc1 [4-(2-{[3-(4,5-dichloroimidazolyl)propyl]amino}pyrimidin-4-yl)benzamide] |
| ≤ 1 | Oc1ccc(-c2ccnc(NCCCc3nc(Cl)c(Cl)[nH]3)n2)cc1 [4-(2-{[3-(4,5-dichloroimidazolyl)propyl]amino}pyrimidin-4-yl)phenol] |

| IC50 [µM] | SMILES |
| --- | --- |
| ≤ 10 | NC(=O)c1ccc(-c2ccnc(NCCCOc3ccc(Cl)cc3)n2)cc1 [4-(2-{[3-(4-chlorophenoxy)propyl]amino}pyrimidin-4-yl)benzamide] |
| ≤ 10 | Oc1ccc(-c2ccnc(NCCCOc3ccc(Cl)cc3)n2)cc1 [4-(2-{[3-(4-chlorophenoxy)propyl]amino}pyrimidin-4-yl)phenol] |
| ≤ 1 | COc1ccc(OCCCNc2nccc(-c3ccc(C(N)=O)cc3)n2)cc1 [4-(2-{[3-(4-methoxyphenoxy)propyl]-amino}pyrimidin-4-yl)benzamide] |
| ≤ 10 | NC(=O)c1ccc(-c2ccnc(NCc3ccc(Cl)cc3Cl)n2)cc1 [4-(2-{[(2,4-dichlorophenyl)methyl]-amino}pyrimidin-4-yl)benzamide] |
| ≤ 10 | COc1cccc(OC)c1CNc1nccc(-c2ccc(C(N)=O)cc2)n1 [4-(2-{[(2,6-dimethoxyphenyl)-methyl]amino}pyrimidin-4-yl)benzamide] |
| ≤ 10 | COc1cc(CNc2nccc(-c3ccc(C(N)=O)cc3)n2)cc(OC)c1OC [4-(2-{[(3,4,5-trimethoxyphenyl)methyl]amino}pyrimidin-4-yl)benzamide] |
| ≤ 10 | COc1ccc(CNc2nccc(-c3ccc(C(N)=O)cc3)n2)cc1OC [4-(2-{[(3,4-dimethoxyphenyl)methyl]amino}-pyrimidin-4-yl)benzamide] |
| ≤ 10 | NC(=O)c1ccc(-c2ccnc(NCc3cc(Cl)cc(Cl)c3)n2)cc1 [4-(2-{[(3,5-dichlorophenyl)methyl]amino}pyrimidin-4-yl)benzamide] |
| ≤ 10 | NC(=O)c1ccc(-c2ccnc(NCc3cccc(Br)c3)n2)cc1 [4-(2-{[(3-bromophenyl)methyl]amino}pyrimidin-4-yl)benzamide] |
| ≤ 10 | NC(=O)c1ccc(-c2ccnc(NCc3cccc(Cl)c3)n2)cc1 [4-(2-{[(3-chlorophenyl)methyl]amino}pyrimidin-4-yl)benzamide] |
| ≤ 10 | COc1cccc(CNc2nccc(-c3ccc(C(N)=O)cc3)n2)c1 [4-(2-{[(3-methoxyphenyl)methyl]-amino}pyrimidin-4-yl)benzamide] |
| ≤ 10 | Cc1cccc(CNc2nccc(-c3ccc(C(N)=O)cc3)n2)c1 [4-(2-{[(3-methylphenyl)-methyl]amino}pyrimidin-4-yl)benzamide] |
| ≤ 10 | NC(=O)c1ccc(-c2ccnc(NCc3cccc([N+](=O)[O-])c3)n2)cc1 [4-(2-{[(3-nitro-phenyl)methyl]amino}pyrimidin-4-yl)benzamide] |
| ≤ 10 | CNCc1cccc(-c2cccc(CNc3nccc(-c4ccc(C(N)=O)cc4)n3)c2)c1 [4-(2-{[(3-{3-[(methylamino)methyl]phenyl}-phenyl)methyl]amino}pyrimidin-4-yl)benzamide] |
| ≤ 10 | NC(=O)c1ccc(-c2ccnc(NCc3ccc(N)cc3)n2)cc1 [4-(2-{[(4-aminophenyl)methyl]amino}-pyrimidin-4-yl)benzamide] |
| ≤ 10 | NC(=O)c1ccc(-c2ccnc(NCc3ccc(Br)cc3)n2)cc1 [4-(2-{[(4-bromophenyl)methyl]amino}pyrimidin-4-yl)benzamide] |
| ≤ 10 | N#Cc1ccc(CNc2nccc(-c3ccc(C(N)=O)cc3)n2)cc1 [4-(2-{[(4-cyanophenyl)methyl]amino}pyrimidin-4-yl)benzamide] |
| ≤ 10 | COc1ccc(CNc2nccc(-c3ccc(C(N)=O)cc3)n2)cc1 [4-(2-{[(4-methoxyphenyl)methyl]amino}pyrimidin-4-yl)benzamide] |
| ≤ 10 | Cc1cnc(CNc2nccc(-c3ccc(C(N)=O)cc3)n2)cn1 [4-(2-{[(5-methylpyrazin-2-yl)methyl]amino}pyrimidin-4-yl)benzamide] |
| ≤ 10 | N#Cc1cnc(NCCNc2ccc([N+](=O)[O-])cn2)nc1-c1ccc(Cl)c(Cl)c1 [4-(3,4-dichlorophenyl)-2-({2-[(5-nitro(2-pyridyl))amino]ethyl}amino)pyrimidine-5-carbonitrile] |
| ≤ 10 | N#Cc1cccc(-c2nc(NCCNc3ccc([N+](=O)[O-])cn3)nc(-c3ccc([N+](=O)[O-])cc3)c2C(=O)O)c1 [4-(3-cyanophenyl)-2-({2-[(5-nitro(2-pyridyl))amino]ethyl}amino)-6-(4-nitrophenyl)pyrimidine-5-carboxylic acid] |
| ≤ 1 | O=C(O)c1c(-c2ccc([N+](=O)[O-])cc2)nc(NCCNc2ccc([N+](=O)[O-])cn2)nc1-c1cccc(O)c1 [4-(3-hydroxyphenyl)-2-({2-[(5-nitro(2-pyridyl))amino]ethyl}amino)-6-(4-nitrophenyl)pyrimidine-5-carboxylic acid] |

| SMILES | IC50 [µM] |
| --- | --- |
| O=C(O)c1c(-c2ccc([N+](=O)[O-])cc2)nc(NCCNc2ccc([N+](=O)[O-])cn2)nc1-c1ccc([N+](=O)[O-])cc1 [4,6-bis(4-nitrophenyl)-2-({2-[(5-nitro(2-pyridyl))amino]ethyl}amino)pyrimidine-5-carboxylic acid] | ≤ 10 |
